# ChEMBL document CHEMBL1201862, “PubChem BioAssay data set” (2004)
# Calls of active or inactive are those of the source.
# Legend:
# [1] = target: Melanocortin receptor 4 (Homo sapiens, UniProt P32245); assay: MC4R antagonist potency on cAMP, dose response, cell-based, TR-FRET, biased antagonists (AID 602298); assay type: functional;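 further: antagonist potency against agonist-stimulated cAMP production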
# [2] = NIH-3T3 fibroblast cytotoxicity, dose response, cytotoxicity control, cell-based, fluorescence, Alamar Blue, secondary assay (AID 2327); assay type: functional;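 further: NIH-3T3 mouse fibroblasts cultured with fluconazole at 8 µg/mL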
# [3] = target: T1, CAAX prenyl protease 2 (Saccharomyces cerevisiae S288c, UniProt Q03530); assay type: biochemical
# T1 sequence (Q03530 whole entry): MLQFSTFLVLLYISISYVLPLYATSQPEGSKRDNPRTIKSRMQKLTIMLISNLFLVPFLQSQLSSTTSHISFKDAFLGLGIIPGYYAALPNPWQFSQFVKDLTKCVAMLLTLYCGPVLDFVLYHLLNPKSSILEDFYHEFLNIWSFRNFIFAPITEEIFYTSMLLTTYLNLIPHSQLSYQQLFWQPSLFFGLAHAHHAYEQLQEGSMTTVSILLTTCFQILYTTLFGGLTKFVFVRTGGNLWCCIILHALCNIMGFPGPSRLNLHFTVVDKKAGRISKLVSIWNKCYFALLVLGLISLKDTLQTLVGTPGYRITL
# [4] = target: Dual specificity mitogen-activated protein kinase kinase 1 (Homo sapiens, UniProt Q02750); assay: Navigating the Kinome. Panel member name: MAP2K1; assay type: functional
# [5] = target: Leukocyte tyrosine kinase receptor (Homo sapiens, UniProt P29376); assay: Navigating the Kinome. Panel member name: LTK; assay type: functional
# [6] = target: Cyclin-dependent kinase 9 (Homo sapiens, UniProt P50750); assay type: functional;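 further: value from the CDK9 entry of a kinome-spanning kinase panel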
# [7] = target: Inhibitor of nuclear factor kappa-B kinase subunit epsilon (Homo sapiens, UniProt Q14164); assay: Navigating the Kinome. Panel member name: IKBKE; assay type: functional
# [8] = target: Dual specificity mitogen-activated protein kinase kinase 2 (Homo sapiens, UniProt P36507); assay: Navigating the Kinome. Panel member name: MAP2K2; assay type: functional
# [9] = target: Tyrosine-protein kinase Srms (Homo sapiens, UniProt Q9H3Y6); assay type: functional;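 further: SRMS measured as one member of a kinome-wide kinase profiling panel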
# [10] = target: Vascular endothelial growth factor receptor 3 (Homo sapiens, UniProt P35916); assay type: functional;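 further: value from a kinome-wide profiling panel, with FLT4 as the panel member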
# [11] = target: Focal adhesion kinase 1 (Homo sapiens, UniProt Q05397); assay type: functional;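 further: measured as one member of a kinome panel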
# [12] = target: Calcium/calmodulin-dependent protein kinase type II subunit delta (Homo sapiens, UniProt Q13557); assay type: functional
# [13] = target: Receptor tyrosine-protein kinase erbB-2 (Homo sapiens, UniProt P04626); assay: Navigating the Kinome. Panel member name: ERBB2; assay type: functional
# [14] = target: Serine/threonine-protein kinase PLK4 (Homo sapiens, UniProt O00444); assay type: functional;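 further: PLK4 measured as one member of a kinome-wide kinase profiling panel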
# [15] = target: Serine/threonine-protein kinase N2 (Homo sapiens, UniProt Q16513); assay type: functional
# [16] = target: Casein kinase I isoform gamma-1 (Homo sapiens, UniProt Q9HCP0); assay type: functional;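 further: measured as the CSNK1G1 member of a kinome profiling panel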
# [17] = target: Mitogen-activated protein kinase 13 (Homo sapiens, UniProt O15264); assay type: functional
# [18] = target: Tyrosine-protein kinase Lck (Homo sapiens, UniProt P06239); assay type: functional;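 further: lck was assayed as one member of a kinase panel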
# [19] = target: Serine/threonine-protein kinase 3 (Homo sapiens, UniProt Q13188); assay type: functional;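 further: measured as one member of a kinome-wide kinase panel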
# [20] = target: Cyclin-dependent kinase 2 (Homo sapiens, UniProt P24941); assay type: functional;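 further: CDK2 measured as one member of a broad kinome profiling panel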
# [21] = target: Dual specificity tyrosine-phosphorylation-regulated kinase 3 (Homo sapiens, UniProt O43781); assay type: functional;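 further: measured as one member of a broad kinase panel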
# [22] = target: Protein-tyrosine kinase 6 (Homo sapiens, UniProt Q13882); assay type: functional
# [23] = target: Glycogen synthase kinase-3 beta (Homo sapiens, UniProt P49841); assay type: functional;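 further: value comes from a broad kinome profiling panel, with GSK3B as the panel member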
# [24] = target: Eukaryotic elongation factor 2 kinase (Homo sapiens, UniProt O00418); assay type: functional
# [25] = target: Fibroblast growth factor receptor 3 (Homo sapiens, UniProt P22607); assay type: functional
# [26] = target: SRSF protein kinase 1 (Homo sapiens, UniProt Q96SB4); assay type: functional;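 further: measured as one member of a kinome-wide kinase profiling panel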
# [27] = Luminescence Cell-Based Dose Confirmation HTS to Identify Activators of 5'UTR Stem-Loop Driven Alpha-Synuclein mRNA Translation in H4 Neuroglioblastoma Cells. [Related pubchem assays: 1829 (Project Summary), 1814 (Primary HTS)]; assay type: functional
# Melanocortin receptor 4, sequence (P32245 whole entry): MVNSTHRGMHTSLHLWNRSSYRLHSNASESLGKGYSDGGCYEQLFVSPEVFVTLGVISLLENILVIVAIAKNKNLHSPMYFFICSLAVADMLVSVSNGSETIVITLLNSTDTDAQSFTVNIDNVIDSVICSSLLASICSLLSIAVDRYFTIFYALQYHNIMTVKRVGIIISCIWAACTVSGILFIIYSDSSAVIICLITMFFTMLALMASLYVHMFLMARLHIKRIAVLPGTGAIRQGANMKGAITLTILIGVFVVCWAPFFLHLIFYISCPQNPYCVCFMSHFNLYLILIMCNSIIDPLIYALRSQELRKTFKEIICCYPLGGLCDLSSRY
# Vascular endothelial growth factor receptor 3, sequence (P35916 whole entry): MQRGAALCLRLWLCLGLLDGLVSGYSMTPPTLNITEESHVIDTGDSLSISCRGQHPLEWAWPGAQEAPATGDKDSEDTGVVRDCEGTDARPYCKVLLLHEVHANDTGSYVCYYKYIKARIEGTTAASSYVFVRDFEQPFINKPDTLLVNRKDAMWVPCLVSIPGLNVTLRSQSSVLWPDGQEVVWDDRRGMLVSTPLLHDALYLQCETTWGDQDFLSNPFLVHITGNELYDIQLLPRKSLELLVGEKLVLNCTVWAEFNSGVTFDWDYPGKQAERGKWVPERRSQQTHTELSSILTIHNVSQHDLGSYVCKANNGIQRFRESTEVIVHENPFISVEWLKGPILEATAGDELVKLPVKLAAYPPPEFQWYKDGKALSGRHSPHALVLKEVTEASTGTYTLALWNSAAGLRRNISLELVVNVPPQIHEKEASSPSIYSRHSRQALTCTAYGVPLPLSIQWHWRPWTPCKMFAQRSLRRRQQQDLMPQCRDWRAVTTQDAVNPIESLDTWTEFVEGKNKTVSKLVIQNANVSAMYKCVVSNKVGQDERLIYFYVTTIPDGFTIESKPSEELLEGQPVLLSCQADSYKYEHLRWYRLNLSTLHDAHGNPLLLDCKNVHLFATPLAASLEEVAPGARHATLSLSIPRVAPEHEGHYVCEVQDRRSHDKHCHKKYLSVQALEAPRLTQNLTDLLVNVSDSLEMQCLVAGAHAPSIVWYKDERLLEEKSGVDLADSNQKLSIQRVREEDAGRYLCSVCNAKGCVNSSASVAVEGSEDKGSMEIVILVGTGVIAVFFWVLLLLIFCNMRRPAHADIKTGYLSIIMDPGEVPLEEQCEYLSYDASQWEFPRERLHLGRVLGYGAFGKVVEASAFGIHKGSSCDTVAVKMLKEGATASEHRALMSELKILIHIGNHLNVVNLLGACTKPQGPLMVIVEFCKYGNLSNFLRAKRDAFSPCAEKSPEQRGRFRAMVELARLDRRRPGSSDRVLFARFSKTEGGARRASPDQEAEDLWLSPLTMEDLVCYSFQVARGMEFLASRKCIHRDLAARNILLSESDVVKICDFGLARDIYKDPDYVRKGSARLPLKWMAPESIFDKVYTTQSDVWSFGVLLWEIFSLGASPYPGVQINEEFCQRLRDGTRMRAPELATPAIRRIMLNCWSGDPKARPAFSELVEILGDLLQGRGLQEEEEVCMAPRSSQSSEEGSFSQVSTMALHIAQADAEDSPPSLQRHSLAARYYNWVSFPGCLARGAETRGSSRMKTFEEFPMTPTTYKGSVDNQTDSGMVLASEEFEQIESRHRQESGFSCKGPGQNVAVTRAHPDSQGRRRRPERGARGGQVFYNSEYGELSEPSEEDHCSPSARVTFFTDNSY
# Focal adhesion kinase 1, sequence (Q05397 whole entry): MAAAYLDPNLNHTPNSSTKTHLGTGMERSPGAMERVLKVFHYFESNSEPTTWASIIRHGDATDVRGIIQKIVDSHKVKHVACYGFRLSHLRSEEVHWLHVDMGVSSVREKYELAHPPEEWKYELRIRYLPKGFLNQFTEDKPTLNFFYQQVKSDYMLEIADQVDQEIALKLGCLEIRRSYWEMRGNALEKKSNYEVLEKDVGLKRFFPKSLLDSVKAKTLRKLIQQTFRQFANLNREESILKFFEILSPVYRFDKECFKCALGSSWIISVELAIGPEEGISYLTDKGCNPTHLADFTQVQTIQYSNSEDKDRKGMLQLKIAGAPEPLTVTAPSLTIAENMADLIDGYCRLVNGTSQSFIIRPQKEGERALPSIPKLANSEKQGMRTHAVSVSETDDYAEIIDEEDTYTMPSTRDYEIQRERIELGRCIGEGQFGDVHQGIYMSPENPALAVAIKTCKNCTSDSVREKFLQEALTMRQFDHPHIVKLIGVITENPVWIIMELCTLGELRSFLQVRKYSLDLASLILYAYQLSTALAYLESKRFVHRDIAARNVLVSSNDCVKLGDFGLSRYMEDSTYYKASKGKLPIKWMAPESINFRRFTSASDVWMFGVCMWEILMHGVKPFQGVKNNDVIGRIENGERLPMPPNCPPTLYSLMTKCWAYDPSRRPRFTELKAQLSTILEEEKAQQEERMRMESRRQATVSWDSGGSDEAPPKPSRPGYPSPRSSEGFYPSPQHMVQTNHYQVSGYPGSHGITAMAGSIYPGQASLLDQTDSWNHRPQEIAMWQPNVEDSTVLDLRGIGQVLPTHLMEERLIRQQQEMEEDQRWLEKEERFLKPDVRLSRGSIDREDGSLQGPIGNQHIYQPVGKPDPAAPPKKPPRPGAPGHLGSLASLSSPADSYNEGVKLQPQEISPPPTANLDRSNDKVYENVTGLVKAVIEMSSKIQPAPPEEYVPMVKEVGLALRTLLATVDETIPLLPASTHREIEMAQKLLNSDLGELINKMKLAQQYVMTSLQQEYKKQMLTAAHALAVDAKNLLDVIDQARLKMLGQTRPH
# Serine/threonine-protein kinase 3, sequence (Q13188 whole entry): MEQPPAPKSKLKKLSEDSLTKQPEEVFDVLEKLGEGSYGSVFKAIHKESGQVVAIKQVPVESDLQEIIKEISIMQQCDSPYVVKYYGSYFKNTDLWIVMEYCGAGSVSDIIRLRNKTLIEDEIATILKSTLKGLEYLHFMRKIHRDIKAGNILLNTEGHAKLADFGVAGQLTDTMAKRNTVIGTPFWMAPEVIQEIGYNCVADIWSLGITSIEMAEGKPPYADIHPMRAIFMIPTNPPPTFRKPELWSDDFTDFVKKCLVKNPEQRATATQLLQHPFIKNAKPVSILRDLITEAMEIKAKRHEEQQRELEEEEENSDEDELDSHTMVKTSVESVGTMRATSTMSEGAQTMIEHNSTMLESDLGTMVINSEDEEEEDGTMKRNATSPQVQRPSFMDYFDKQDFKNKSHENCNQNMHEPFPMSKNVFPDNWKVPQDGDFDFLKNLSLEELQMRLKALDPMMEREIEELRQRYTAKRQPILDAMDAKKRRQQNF
# Fibroblast growth factor receptor 3, sequence (P22607 whole entry): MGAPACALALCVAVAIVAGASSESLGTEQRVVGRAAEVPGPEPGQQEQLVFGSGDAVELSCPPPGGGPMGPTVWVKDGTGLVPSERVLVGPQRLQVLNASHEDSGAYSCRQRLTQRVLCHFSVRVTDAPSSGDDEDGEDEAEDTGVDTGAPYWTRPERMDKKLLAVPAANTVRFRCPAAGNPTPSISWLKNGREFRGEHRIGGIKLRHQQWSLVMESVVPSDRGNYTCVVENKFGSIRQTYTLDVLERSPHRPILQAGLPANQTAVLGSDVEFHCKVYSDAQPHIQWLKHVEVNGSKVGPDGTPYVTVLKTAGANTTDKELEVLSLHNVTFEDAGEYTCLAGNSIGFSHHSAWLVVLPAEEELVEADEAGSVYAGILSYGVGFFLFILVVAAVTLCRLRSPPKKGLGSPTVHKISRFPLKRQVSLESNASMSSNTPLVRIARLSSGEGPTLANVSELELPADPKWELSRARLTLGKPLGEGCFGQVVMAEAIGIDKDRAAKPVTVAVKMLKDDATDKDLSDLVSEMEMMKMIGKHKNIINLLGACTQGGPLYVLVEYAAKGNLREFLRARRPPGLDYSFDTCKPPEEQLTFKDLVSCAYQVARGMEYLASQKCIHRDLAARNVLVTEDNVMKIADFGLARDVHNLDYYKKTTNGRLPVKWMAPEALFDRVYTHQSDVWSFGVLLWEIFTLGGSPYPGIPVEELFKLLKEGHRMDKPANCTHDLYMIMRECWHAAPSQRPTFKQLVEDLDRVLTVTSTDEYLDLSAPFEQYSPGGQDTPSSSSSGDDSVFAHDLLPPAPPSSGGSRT
# Eukaryotic elongation factor 2 kinase, sequence (O00418 whole entry): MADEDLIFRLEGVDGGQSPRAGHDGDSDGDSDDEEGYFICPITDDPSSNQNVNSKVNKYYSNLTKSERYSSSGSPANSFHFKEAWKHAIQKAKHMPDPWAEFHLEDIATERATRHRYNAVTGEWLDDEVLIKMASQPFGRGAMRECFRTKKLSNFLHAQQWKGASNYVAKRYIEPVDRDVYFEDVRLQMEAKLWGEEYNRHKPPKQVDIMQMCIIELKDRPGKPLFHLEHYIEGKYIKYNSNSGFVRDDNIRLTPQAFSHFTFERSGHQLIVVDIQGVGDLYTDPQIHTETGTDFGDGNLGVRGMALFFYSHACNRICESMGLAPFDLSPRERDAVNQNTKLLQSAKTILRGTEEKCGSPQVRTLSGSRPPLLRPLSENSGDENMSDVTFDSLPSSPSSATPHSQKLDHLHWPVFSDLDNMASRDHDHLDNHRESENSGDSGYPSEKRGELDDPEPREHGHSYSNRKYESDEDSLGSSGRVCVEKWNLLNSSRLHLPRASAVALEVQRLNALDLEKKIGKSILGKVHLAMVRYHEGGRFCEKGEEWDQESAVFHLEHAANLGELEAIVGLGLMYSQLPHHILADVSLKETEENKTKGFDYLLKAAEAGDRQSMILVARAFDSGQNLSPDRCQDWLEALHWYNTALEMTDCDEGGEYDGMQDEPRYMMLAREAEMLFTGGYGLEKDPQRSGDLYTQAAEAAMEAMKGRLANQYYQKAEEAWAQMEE
smiles,measurement,setting,value
CCCCCCCCCCC[N+](C)(C)CC/C=C1/c2ccccc2Sc2ccc(Cl)cc21,IC50,[1],24.3 µM (inactive)
same,EC50,[2],> 150 µM (inconclusive)
same,AC50,[3],6.5 µM (active)
CCn1c(-c2nonc2N)nc2cncc(C(=O)N3CCC(N)C3)c21 (configuration not stated),Ki,[4],> 2.51 µM (inactive)
same,Ki,[5],> 2.51 µM (inactive)
same,Ki,[6],> 1.58 µM (inactive)
same,Ki,[7],> 3.16 µM (inactive)
same,Ki,[8],> 3.98 µM (inactive)
Cc1[nH]nc2ccc(-c3cncc(OCC(N)Cc4c[nH]c5ccccc45)c3)cc12 (configuration not stated),Ki,[9],> 1.58 µM (inactive)
same,Ki,[10],1.58 µM (active)
same,Ki,[11],> 1.58 µM (inactive)
same,Ki,[12],0.0158 µM (active)
same,Ki,[13],> 1.58 µM (inactive)
same,Ki,[14],> 3.98 µM (inactive)
same,Ki,[15],0.00501 µM (active)
same,Ki,[16],0.0398 µM (active)
same,Ki,[17],1.58 µM (active)
same,Ki,[18],> 2.51 µM (inactive)
same,Ki,[19],0.0501 µM (active)
same,Ki,[20],0.0501 µM (active)
same,Ki,[21],0.794 µM (active)
same,Ki,[22],> 2.51 µM (inactive)
same,Ki,[23],0.01 µM (active)
same,Ki,[24],> 3.98 µM (inactive)
same,Ki,[25],> 2 µM (inactive)
same,Ki,[26],1.26 µM (active)
COC(=O)c1ccccc1NC1=C/C(=N\S(=O)(=O)c2cccs2)c2ccccc2C1=O,EC50,[27],> 120 µM (not active)
